# According to ChEMBL document CHEMBL3137667, “[Drug-induced liver injury; fourteenth updated edition of the bibliographic database of liver injuries and related drugs]” (Gastroenterol Clin Biol, 2004):
# Legend:
# [1] = human, serum, 4383 h
# [2] = human
# [3] = human; remark: listed apart in the source
# [4] = human; remark: listed apart in the source
# [5] = Presence of at least one case with successful reintroduction. [column 'REINT' in source]; settings: human
# [6] = human; remark: listed apart in the source
# [7] = human; remark: listed apart in the source
# [8] = human; remark: listed apart in the source
# [9] = Times to onset, minimal and maximal, observed in the indexed observations. [column 'DELAI' in source]; settings: human
# [10] = human; remark: listed apart in the source
# [11] = human; remark: listed apart in the source
# [12] = Highest frequency of moderate liver toxicity observed during clinical trials, expressed as a percentage. [column '% BIOL' in source]; settings: human
# [13] = human; remark: listed apart in the source
# [14] = Highest frequency of acute liver toxicity observed during clinical trials, expressed as a percentage. [column '% AIGUE' in source]; settings: human
# [15] = human, serum
# [16] = Comments (NB not yet translated). [column 'COMMENTAIRES' in source]; settings: human
# [17] = human, serum; remark: listed apart in the source
# 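Throughout, for Hepatotoxicity (association with vascular disease): count of indexed literature references reporting vascular liver injury in humans, e.g. peliosis hepatitis, hepatic veno-occlusive disease or Budd-Chiari syndrome.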
# 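Throughout, for Hepatotoxicity (benign tumour): value is a count of indexed literature references citing a benign tumour confirmed by histopathology.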
# 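Throughout, for Hepatotoxicity (choleostasis): human cholestatic liver injury, shown by histopathology or by peak ALT or AST elevation over alkaline phosphatase ratio below 2, value counts indexed literature reports.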
# 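Throughout, for Hepatotoxicity (chronic liver disease): chronic liver injury confirmed by histopathology or persistently raised serum aminotransferase activity beyond 6 months, value given as the count of indexed literature references.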
# 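Throughout, for Hepatotoxicity (cirrhosis): value is a count of indexed literature references reporting cirrhosis confirmed by histopathology.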
# 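Throughout, for Hepatotoxicity (cytolytic): human cytolytic liver injury, shown by histopathology or by a ratio above 5 of peak ALT or AST elevation to alkaline phosphatase elevation, value counts indexed references.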
# 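Throughout, for Hepatotoxicity (granulomatous hepatitis): value is a count of indexed literature references reporting granulomatous liver disease confirmed by histopathology.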
# 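Throughout, for Hepatotoxicity (malignant tumour): malignant tumour confirmed by histopathology, value gives the count of indexed literature references reporting it.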
# 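Throughout, for Hepatotoxicity (severe hepatitis): human clinical data: severe hepatitis, meaning potentially life-threatening liver failure or clinically observed cases, the value counts how many indexed literature references report it.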
# 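Throughout, for Hepatotoxicity (steatosis): steatosis confirmed by histopathology, value is the count of indexed references.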
SMILES,Hepatotoxicity (chronic liver disease) [1],Hepatotoxicity (steatosis) [2],Hepatotoxicity (severe hepatitis) [3],Hepatotoxicity (choleostasis) [4],Hepatotoxicity (successful reintroduction) [5],Hepatotoxicity (cytolytic) [6],Hepatotoxicity (cirrhosis) [7],Hepatotoxicity (malignant tumour) [8],Hepatotoxicity (time to onset) [9],Hepatotoxicity (granulomatous hepatitis) [10],Hepatotoxicity (association with vascular disease) [11],Hepatotoxicity (moderate) [12] [%],Hepatotoxicity (benign tumour) [13],Hepatotoxicity (acute) [14] [%],Hepatotoxicity (moderate) [15],Hepatotoxicity (comment) [16],Hepatotoxicity (acute) [17],other results
CC(=O)CC(c1ccc([N+](=O)[O-])cc1)c1c(O)c2ccccc2oc1=O (stereo not drawn) [ACENOCOUMAROL],1,0,0,6,yes,3,0,0,2 days - 5 years,0,0,0,0,0,2,RC/PHENPROCOUMON CHOLESTASE_PROLONGEE,8,–
Cc1ccc(S(=O)(=O)NC(=O)NN2CCCCCC2)cc1 [TOLAZAMIDE],0,0,1,4,yes,5,0,0,3 weeks - 18 months,0,0,0,0,0,0,CHOLESTASE_PROLONGEE RC/CHLORPROPAMIDE,5,–
Nc1ccn([C@@H]2CS[C@H](CO)O2)c(=O)n1 [LAMIVUDINE],1,13,–,1,yes,26,0,0,10 days - 3 years,0,0,–,0,–,15,REACTIVATION_HVB REACTIVATION_HVC,30,Hepatotoxicity (severe hepatitis) ([3]; Liver): 15; Hepatotoxicity (moderate) ([12]; Liver): 44%; Hepatotoxicity (acute) ([14]; Liver): 12.5%
CCN1CCN(C(=O)N[C@@H](C(=O)N[C@@H]2C(=O)N3[C@@H]2SC(C)(C)[C@@H]3C(=O)O)c2ccccc2)C(=O)C1=O [PIPERACILLIN],0,0,0,3,yes,1,0,0,2 weeks,0,0,25.6,0,0.2,14,CHOLANGITE,4,–
C[C@]12CCC(=O)C=C1CC[C@@H]1[C@@H]2CC[C@@]2(C)[C@H]1CC[C@]2(C)O [METHYLTESTOSTERONE],0,0,1,21,yes,2,2,10,1 week - 24 years,0,4,32,6,0,4,ANGIOSARCOME CHOLESTASE_PROLONGEE CHOLANGITE #CBP PELIOSE,30,–
Cc1cn([C@H]2C[C@H](N=[N+]=[N-])[C@@H](CO)O2)c(=O)[nH]c1=O [ZIDOVUDINE],0,17,13,3,yes,22,0,0,1 week - 8 years,0,0,44,0,12.5,26,I/INTERFERON/PARACETAMOL REACTIVATION_HVB,25,–
CN[C@H]1CC[C@@H](c2ccc(Cl)c(Cl)c2)c2ccccc21 [SERTRALINE],0,0,–,–,yes,–,0,0,3 days - 5 months,–,0,–,0,–,4,CHOLANGIOLITE,8,Hepatotoxicity (severe hepatitis) ([3]; Liver): 1; Hepatotoxicity (choleostasis) ([4]; Liver): 4; Hepatotoxicity (cytolytic) ([6]; Liver): 5; Hepatotoxicity (granulomatous hepatitis) ([10]; Liver): 0; Hepatotoxicity (moderate) ([12]; Liver): 0.8%; Hepatotoxicity (acute) ([14]; Liver): 0%
CC(=O)CC(c1ccccc1)c1c(O)c2ccccc2oc1=O (stereo not drawn) [WARFARIN],0,0,0,5,yes,0,0,0,1 week - 2.5 years,0,0,0,0,0,2,RC/PHENPROCOUMON RUPTURE_HEPATIQUE #S.REYE,6,–
CN1Cc2c(N)cccc2C(c2ccccc2)C1 (stereo not drawn) [NOMIFENSINE],0,0,0,6,yes,8,0,0,3 days - 3 months,5,0,0,0,0,6,RC/MIANSERINE,11,–
